Test results taken from US20260209196A1, “AMIDINOUREA DERIVATIVES AND THEIR USE IN THE TREATMENT OF CANCER” (UNIVERSITE COTE D'AZUR, priority 2022, published 2026).
Where two headings read alike, the source gives them in different places.

Assays:
[1] = test system: A375; assay: Cell viability of A375 melanoma cells by Trypan Blue exclusion; format: cell-based; conditions: Homo sapiens, A-375, 5 μM, viable cells as mean percentage of control cells ± SEM, N=3
Experimental: The BRAFV600E mutant melanoma line A375 (CRL-1619) was purchased from ATCC (Manassas, VA, USA). The A375 were maintained in glutamine-containing DMEM supplemented with 10% heat-inactivated fetal bovine serum, penicillin (100 units/ml) and streptomycin ([…]).
Cell viability was measured by the Trypan Blue exclusion method. Briefly, cells washed with PBS were harvested by a 3-minute incubation in 0.05% trypsin before neutralization with serum containing medium. An aliquot of the cell suspension was then mixed 1:1 with a 0.4% Trypan blue solution and viable cells were counted within 5 minutes on Kova slides under an optical microscope. Results are expressed as the mean percentage of control cells±SEM. N=3

[2] = test system: NCI 60 cell panel; assay: DTP-NCI assay (NCI 60 cell screen, single high dose); format: cell-based; conditions: Homo sapiens, 48 h; single high dose 10^-5 M, full NCI 60 cell panel; growth relative to no-drug control and to time zero number of cells; read-out: DTP-NCI (mean of the percent growth of treated cells)
Experimental: The effect of 10 μM of MTF504 was monitored on a panel 60 cell lines representing nine distinct tumour types: leukemia, colon, lung, central nervous system, renal, melanoma, ovarian, breast and prostate. Briefly, the compound was sent to the US National Cancer Institute where its antineoplastic effects were monitored on the panel of cell lines after 48 hours of treatment following a standardized protocol.
All compounds submitted to the NCI 60 Cell screen are tested initially at a single high dose (10^-5 M) in the full NCI 60 cell panel. The results are reported as a mean of the percent growth of treated cells. The number reported is growth relative to the no-drug control, and relative to the time zero number of cells. This allows detection of […].

[3] = 24 h, read-out: Viab A375 5 μM/24 h
[4] = 48 h, read-out: Viab A375 5 μM/48 h

Row | Structure (SMILES) | viability at 5 µM [1, 3] | viability at 5 µM [1, 4] | activity at 10 µM [2]
1 | Cc1nc(NC(=N)NC(=O)Nc2ccccc2)sc1C [MTF496, 4,5-dimethylthiazol-2-yl-N″-(aniline-carbonyl)-guanidine] | 67.7% | 56.6% | 83.8%
2 | Cc1nc(NC(=N)NC(=O)Nc2ccccc2Cl)sc1C [MTF505, 4,5-dimethylthiazol-2-yl-N″-(2-chloroaniline-carbonyl)-guanidine] | 31.1% | 10% | 33%
3 | Cc1nc(NC(=N)NC(=O)Nc2cccc(Cl)c2)sc1C [MTF506, 4,5-dimethylthiazol-2-yl-N″-(3-chloroaniline-carbonyl)-guanidine] | 64.3% | 54.5% | 67.7%
4 | Cc1nc(NC(=N)NC(=O)Nc2ccc(Cl)cc2)sc1C [MTF507, 4,5-dimethylthiazol-2-yl-N″-(4-chloroaniline-carbonyl)-guanidine] | 98.9% | 139% | –
5 | Cc1ccccc1NC(=O)NC(=N)Nc1nc(C)c(C)s1 [MTF509, 4,5-dimethylthiazol-2-yl-N″-(2-methylaniline-carbonyl)-guanidine] | 23% | 13.6% | 29.3%
6 | Cc1cccc(NC(=O)NC(=N)Nc2nc(C)c(C)s2)c1 [MTF510, 4,5-dimethylthiazol-2-yl-N″-(3-methylaniline-carbonyl)-guanidine] | 56.5% | 26.1% | 47.2%
7 | COc1cccc(NC(=O)NC(=N)Nc2nc(C)c(C)s2)c1 [MTF511, 4,5-dimethylthiazol-2-yl-N″-(3-methoxyaniline-carbonyl)-guanidine] | 92.1% | 82.8% | –
8 | Cc1nc(NC(=N)NC(=O)Nc2cccc([N+](=O)[O-])c2)sc1C [MTF512, 4,5-dimethylthiazol-2-yl-N″-(3-nitroaniline-carbonyl)-guanidine] | 87% | 54.3% | –
9 | N=C(NC(=O)Nc1ccc(Cl)cc1Cl)Nc1nc2ccccc2s1 [MTF649, N-benzo[d]thiazol-2-yl-N″-(2,4-dichloroaniline-carbonyl)-guanidine] | – | – | -58.2%
10 | N=C(NC(=O)Nc1c(Cl)cccc1Cl)Nc1nc2ccccc2s1 [MTF650, N-benzo[d]thiazol-2-yl-N″-(2,6-dichloroaniline-carbonyl)-guanidine] | – | – | 36.4%
11 | N=C(NC(=O)Nc1ccccc1Br)Nc1nc2ccccc2s1 [MTF651, N-benzo[d]thiazol-2-yl-N″-(2-bromoaniline-carbonyl)-guanidine] | – | – | -17.8%
12 | CCOc1ccccc1NC(=O)NC(=N)Nc1nc2ccccc2s1 [MTF652, N-benzo[d]thiazol-2-yl-N″-(2-ethoxyaniline-carbonyl)-guanidine] | – | – | 12.6%
13 | CCc1ccccc1NC(=O)NC(=N)Nc1nc2ccccc2s1 [MTF653, N-benzo[d]thiazol-2-yl-N″-(2-ethylaniline-carbonyl)-guanidine] | – | – | 0.27%
14 | N=C(NC(=O)Nc1ccccc1F)Nc1nc2ccccc2s1 [MTF654, N-benzo[d]thiazol-2-yl-N″-(2-fluoroaniline-carbonyl)-guanidine] | – | – | 20.3%
15 | N=C(NC(=O)Nc1ccccc1[N+](=O)[O-])Nc1nc2ccccc2s1 [MTF655, N-benzo[d]thiazol-2-yl-N″-(2-nitroaniline-carbonyl)-guanidine] | – | – | 11.6%
16 | Cc1ccc(Cl)cc1NC(=O)NC(=N)Nc1nc2ccccc2s1 [MTF656, N-benzo[d]thiazol-2-yl-N″-(2-methyl-5-chloroaniline-carbonyl)-guanidine] | – | – | -19.4%
17 | N=C(NC(=O)Nc1ccccc1Cl)Nc1nc2ccc([N+](=O)[O-])cc2s1 [MTF657, N-6-nitrobenzo[d]thiazol-2-yl-N″-(2-chloroaniline-carbonyl)-guanidine] | – | – | 31.2%
